For three compounds, IC50 results are on record in ChEMBL document CHEMBL1149543, “Discovery of inhibitors of the pentein superfamily protein dimethylarginine dimethylaminohydrolase (DDAH), by virtual screening and hit analysis” (Bioorg Med Chem Lett, 2007).

A short description of the experiment: Inhibition of Pseudomonas aeruginosa DDAH.
By IC50 is commonly meant the concentration at which inhibition is half-maximal. A lower IC50 goes with greater potency in that assay. Turning to `O=C(Cn1cc(/C=C2\C(=O)NC(=S)N(c3ccccc3)C2=O)c2ccccc21)NCc1ccco1`, the IC50 stood at 16.9 µM.
For the compound `O=C(Cn1cc(C=C2C(=O)NC(=S)NC2=O)c2ccccc21)NCc1ccco1`, the half-maximal inhibitory concentration (IC50) amounted to 6.4 µM.
In the case of `COc1ccc(N2C(=O)/C(=C/c3c[nH]c4ccccc34)C(=O)NC2=S)cc1` it was 2 µM.
